{
  "source": "patent US20100104546A1",
  "about": "“MODULATORS OF ANTIGEN-DEPENDENT T CELL PROLIFERATION” (CHILDREN, YOUTH AND WOMEN'S HEALTH SERVICE, priority 2007, published 2010)",
  "key": {"human lymphocytes": {"test_system": "human lymphocytes", "test": "Human lymphocyte proliferation assay, mitogen (PHA)-induced", "format": "cell-based", "conditions": "PHA-stimulated human lymphocytes, in vitro; read-out: IC50 for the PHA-stimulated response"}, "splenocytes [1]": {"test_system": "splenocytes", "test": "Tetanus toxoid (TT)-induced ex vivo lymphocyte proliferation after administration to TT-immunized mice", "conditions": "10, 40 and 80 mg/kg i.p. in mouse serum, spleens removed 2 h later", "experimental": "(§1) Mice were immunized with SRBC. After 5 days they were given β-thia-21:3n-3 at the indicated doses i.p. After 2 hours the spleens were removed and processed into single cell suppressions. These were then cultured in the presence (□), or absence of (▪) of SRBC to assess the proliferation. The results are expressed as mean±SEM of 3 experiments. (B) Effect of β-oxa-21:3n-3 on tetanus toxoid (TT)-induced ex vivo lymphocyte responses. Mice were immunized with TT subcutaneously and after 7 days were given β-oxa-21:3n-3 in mouse serum, intraperitoneally. Two hours later the spleen removed, single cell suspension prepared and examined for lymphoproliferation responses to TT in 5 day cultures. The results are expressed as mean±SEM of 3 experiments.\n6-7 weeks old Balb/c mice were injected subcutaneously with 100 μl of 10% sheep red blood cells (IMVS, Inc., Adelaide, Australia) After 5 days 100 ul of β-oxa-21:3n-3 at indicated amounts were injected intraperitoneally, intravenously or gavaged orally. […] Cells were washed with RPMI-1640 containing 10% fetal bovine serum, 10 mM Hepes, antibiotics and glutamine (RPMI-10) and counted using an automated Cell-Dyne 3500R (Abbott, Inc. MA) instrument. […] Cells were harvested and thymidine incorporation was determined using a beta scintillation counter. […]"}, "[2]": {"test_system": "delayed-type hypersensitivity to SRBC antigen", "conditions": "intraperitoneal administration, mouse hind paws; cited from earlier work"}, "[3]": {"test_system": "circulating cytokine levels", "test": "Circulating cytokine levels in SRBC-sensitized mice after intravenous SRBC challenge", "format": "in vivo", "conditions": "serum, 80 mg/kg IP, 6 h after IV SRBC; ELISA"}, "Human PBMC": {"test_system": "Human PBMC", "test": "Human lymphocyte proliferation assay, antigen (tetanus toxoid)-induced", "format": "cell-based", "experimental": "Peripheral blood mononuclear cells were purified from the blood of normal volunteers using hypagn-ficoll density gradient separation. In the assay 100 μl of PBM (treated or untreated) at a concentration of 2×10^6/ml were stimulated by the addition of 100 μl of PHA (μg/ml) or […] 2 μg/ml TT in microtitre plates. The cultures contained 5% human blood group AB serum. The cells were incubated at 37° C. in 5% CO2-air and high humidity for 72 h or 5 days (for TT). The cultures were pulsed with 1 μl of 3H-TdR 6 h prior to harvest. The amount of radioactivity incorporated was determined to assess the degree of lymphoproliferation.\nTo attempt to resolve this discrepancy, we examined the sensitivity of the antigen-induced (tetanus toxoid) human lymphocyte response in vitro, under the same conditions as those in which the PHA-induced response were inhibited by β-oxa21:3n-3. Human PBMC which were known to show lymphoproliferation in response to TT were pretreated with a range of concentrations of β-oxa21:3n-3 and then stimulated with TT. Proliferation was quantitated after […] of incubation of cultures. […] Using purified human T cells which were stimulated with PHA-PMA we were able to ascertain that when β-oxa21:3n-3 was added to cells the stimulated cells contained 30 fold more β-oxa-21:3n-3 than resting T cells (FIG. 5B)."}, "[4]": {"test_system": "Th1, Th2 and macrophage-related cytokines", "test": "Ex vivo cytokine production by antigen (SRBC)-stimulated splenocytes", "format": "in vivo, mice", "conditions": "splenocytes cultured 3 days with SRBC, IP dosing"}, "splenocytes [5]": {"test_system": "splenocytes", "test": "Ex-vivo antigen (SRBC)-dependent splenocyte proliferation after administration to SRBC-immunized mice (thymidine incorporation)", "format": "in vivo, Balb/c mice", "experimental": "Mice were immunized with SRBC for 5 days. β-oxa-21:3n-3 was delivered in DMSO and injected intraperitoneally at the indicated doses. After 2 h spleens were removed and single cell suspensions were prepared. The splenocytes were cultured for 3 days in the presence (□), or absence (▪) of SRBC. Thymidine incorporation for final 16 hours of culture was determined. The data is expressed as mean±SEM of 3 separate experiments each in triplicate.\nMice were immunized with SRBC for 5 days. Then β-oxa-21:3n-3 dissolved in syngeneic mouse serum and injected intraperitoneally (A), intravenously (B) or gavaged/orally (C) at the indicated concentrations. After 2 h spleens were removed, single cell suspensions prepared and the splenocytes cultured for 3 days in the presence (▪), or absence (□) of SRBC. Thymidine incorporation for final 16 hours of culture was determined. The data is presented as the mean±SEM of 3 separate experiments separate experiments, each in quintuplets.\nas §1\n6-7 weeks old Balb/c mice were injected subcutaneously with 100 μl of 10% sheep red blood cells (IMVS, Inc., Adelaide, Australia) After 5 days 100 ul of β-oxa-21:3n-3 at indicated amounts were injected intraperitoneally, intravenously or gavaged orally. In another experimental set up mice were given β-tha-21:3n-3 i.p. In a third approach mice were infected subcutaneously with 100 μl of Tetanus Toxoid (2,500 Lf/ml). Then 7 days later were given β-oxa-21:3n-3. At indicated time points mice were sacrificed and spleens were removed. Single cell suspensions were prepared and white blood cells (WBC) were enriched by passing through Ficoll-Paque Plus (GE Healthcare). Cells were washed with RPMI-1640 containing 10% fetal bovine serum, 10 mM Hepes, antibiotics and glutamine (RPMI-10) and counted using an automated Cell-Dyne 3500R (Abbott, Inc. MA) instrument. Cells were viable (>98%) as judged by trypan blue exclusion. (β-oxa-21:3n-3)- or vehicle-treated mouse samples (200,000/well) were mixed either with SRBC (600,000/well) with 100 μl of Tetanus toxoid (50 Lf/ml) or phytohaemaglutinin (PHA) (2 μg/ml) or with PHA plus phorbol myristate acetate (PMA) (10 ng/ml) or with PMA plus calcium ionophore A23187 ([…]). Cells were cultured in 96 well U bottom plates (Nunc, Inc. Denmark) for 3 days (except for TT −5 days) at 37° C. under humidified air containing 5% CO2. At some instances 50 μl of supernatants were transferred to a new plate and frozen immediately at −70° C. to be used for cytokine measurements. Thymidine (50 μl, 1 μCi/well) was added at final 16 hours of culture. Cells were harvested and thymidine incorporation was determined using a beta scintillation counter."}},
  "data": [
    {"smiles": "CC/C=C\\C/C=C\\C/C=C\\CCCCCCCCOCC(=O)O", "note": "[β-oxa-21:3n-3]", "values": [
      {"measurement": "IC50", "setting": "human lymphocytes", "value": 30, "unit": "µM"},
      {"measurement": "lymphoproliferation in response to TT", "setting": "splenocytes [1]", "value": "capable of inhibiting the response"},
      {"measurement": "delayed-type hypersensitivity to SRBC antigen", "setting": "[2]", "value": "inhibition"},
      {"measurement": "TGFβ conc", "setting": "[3]", "value": "(52 ± 6) × 10^3 pg/ml"},
      {"measurement": "sensitivity of antigen-induced response relative to mitogenic response", "setting": "Human PBMC; TT versus PHA IC50", "value": 15, "unit": "fold"},
      {"measurement": "IC50", "setting": "Human PBMC; tetanus toxoid-stimulated human PBMC, in vitro, read-out: IC50 for the inhibition of the antigen-induced response", "value": 2, "unit": "µM"},
      {"measurement": "antigen-induced macrophage cytokine levels (MCP-1, KC, IL-12)", "setting": "[4]", "value": "no significant effects"},
      {"measurement": "antigen-stimulated Th1 cytokines (IL-2, IL-6, IFNγ and TNFα)", "setting": "[4]", "value": "concentration-dependent reduction"},
      {"measurement": "antigen-stimulated Th2 cytokines (IL-4, IL-5, IL-10 and IL-13)", "setting": "[4]", "value": "concentration-dependent reduction"},
      {"measurement": "inhibition of splenocyte proliferation, duration of effect", "setting": "splenocytes [5]; ex-vivo SRBC challenge 1, 2 and 6 days after single administration (80 mg/kg IP)", "value": "significant inhibition"},
      {"measurement": "antigen-dependent splenocyte proliferation", "setting": "splenocytes [5]; intravenous, in syngeneic mouse serum, compared with IP", "value": "even more pronounced"},
      {"measurement": "antigen-dependent proliferation of splenocytes", "setting": "splenocytes [5]; orally administered (gavage), in mouse serum", "value": "significantly depressed"},
      {"measurement": "antigen-dependent proliferation of splenic lymphocytes, ex-vivo", "setting": "splenocytes [5]; single IP injection in 7% DMSO, 2 h, SRBC pre-sensitized mice", "value": "dose-dependent inhibition"}
    ]}
  ]
}
